This is an account of results in patent US11332500B2, “Heterotandem bicyclic peptide complexes” (BicycleTx Limited, priority 2019, dated 2022).

For one data set, the target named is T1, CD137 (Homo sapiens, UniProt Q07011).
T1 construct: host or cells: Jurkat reporter cells from the Promega kit, co-cultured with tumour cells (NCI-H292, PC3 or RKO)
The experiment in a line: CD137 reporter assay co-culture with RKO tumour cells (PD-L1/CD137 heterotandems). The format is cell-based. Conditions: Jurkat CD137 reporter cells co-cultured with RKO (PD-L1), 6 h; read-out: Fold Induction over background. As for the experimental part:
Culture medium, referred to as R1 media, is prepared by adding 1% FBS to RPMI-1640 (component of Promega kit CS196005). Serial dilutions of test articles in R1 are prepared in a sterile 96 well-plate. Add 25 μL per well of test articles or R1 (as a background control) to designated wells in a white cell culture plate. Tumour cells* are harvested and resuspended at a concentration of 400,000 cells/mL in R1 media. Twenty five (25) μL/well of tumour cells are added to the white cell culture plate. Jurkat cells (Promega kit CS196005, 0.5 mL) are thawed in the water bath and then added to 5 ml pre-warmed R1 media. Twenty five (25) μL/well of Jurkat cells are then added to the white cell culture plate. Incubate the cells and test articles for 6 h at 37° C., 5% CO2. At the end of 6 h, add 75 μL/well Bio-Glo™ reagent (Promega) and incubate for 10 min before reading luminescence in a plate reader (Clariostar, BMG). The fold change relative to cells alone (Jurkat cells+Cell line used in co-culture) is calculated and plotted in GraphPad Prism as log(agonist) vs response to determine EC50 (nM) and Fold Induction over background (Max).
The tumour cell type used in co-culture for EphA2 is PC3. The tumour cell type used in co-culture for PD-L1 is RKO.
A summary of the fold induction induced by PD-L1/CD137 heterotandem peptides in the CD137 reporter coculture assay with RKO cells is shown in Table 3.
(In general: Reporter assays use an easily measured gene product as a stand-in for the process of interest.)

The nature of data set [1]: Pharmacokinetics of CD137 heterotandem bicyclic peptide complexes in SD rats. Conditions: rat, in vivo, male SD rats, IV Inf, plasma; for clearance: read-out: Clp; for half-life: read-out: T½ (converted); for Vd: read-out: Vdss. As for the experimental part: Male SD Rats were dosed with 2 mg/kg of each heterotandem Bicycle peptide complex formulated in 25 mM Histidine HCl, 10% sucrose pH 7. Serial bleeding (about 80 μL blood/time point) was performed via submadibular or saphenous vein at each time point. All blood samples were immediately transferred into prechilled microcentrifuge tubes containing 2 μL K2-EDTA (0.5M) as anti-coagulant and placed on wet ice. Blood samples were immediately processed for plasma by centrifugation at approximately 4° C., 3000 g. The precipitant including internal standard was immediately added into the plasma, mixed well and centrifuged at 12,000 rpm, 4° C. for 10 minutes. The supernatant was transferred into pre-labeled polypropylene microcentrifuge tubes, and then quick-frozen over dry ice. The samples were stored at […] or below as needed until analysis. 7.5 μL of the supernatant samples were directly injected for LC-MS/MS analysis using an Orbitrap Q Exactive in positive ion mode to determine the concentrations of Bicycle. Plasma concentration versus time data were analyzed by non-compartmental approaches using the Phoenix WinNonlin 6.3 software program. C0, Cl, Vdss, T½, AUC(0-last), AUC(0-inf), MRT(0-last), MRT(0-inf) and graphs of plasma concentration versus time profile were reported.

Where two headings read alike, the source gives them in different places. *1 amine or outer side, *2 acyl side, *3 side chain or, on linkers, in order; H or OH if unused. Where a SMILES comes first, the peptide text is derived from it. Bridges are numbered along the chain shown (N, C = ends). Roman numbers before positions name the chains, in order. [ ]: non-standard residue; d: D form. TATA = O=C(CC[*:1])N1CN(C(=O)CC[*:2])CN(C(=O)CC[*:3])C1; X1 = O=C(CCc1cn(CCOCCOCCOCCOCCOCCC(=O)[*:2])nn1)[*:1]; X2 = O=C(CCOCCOCCOCCOCCOCCn1cc(CCC(=O)[*:2])nn1)[*:1]; Dip = N[C@H](C(=O)O)C(c1ccccc1)c1ccccc1; Hyp = O=C(O)[C@@H]1C[C@@H](O)CN1; hArg = N=C(N)NCCCC[C@H](N)C(=O)O; tBuAla = CC(C)(C)C[C@H](N)C(=O)O; Cba = N[C@@H](CC1CCC1)C(=O)O; Nle = CCCC[C@H](N)C(=O)O

T1 sequence (Q07011 24-255): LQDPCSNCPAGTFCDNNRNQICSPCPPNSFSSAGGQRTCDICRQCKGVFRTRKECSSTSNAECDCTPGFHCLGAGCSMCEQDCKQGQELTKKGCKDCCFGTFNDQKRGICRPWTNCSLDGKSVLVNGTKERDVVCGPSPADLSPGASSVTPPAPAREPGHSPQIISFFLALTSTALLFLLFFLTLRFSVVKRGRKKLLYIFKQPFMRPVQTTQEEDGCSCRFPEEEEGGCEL

With `CCCC[C@@H]1NC(=O)[C@H](Cc2ccc(O)cc2)NC(=O)[C@@H]2CCCN2C(=O)[C@H](CC(=O)O)NC(=O)[C@H](C)NC(=O)[C@H](Cc2ccccc2)NC(=O)[C@@H]2CSCCC(=O)N3CN(CN(C3)C(=O)CCSC[C@@H](C(=O)N[C@@H](C)C(N)=O)NC1=O)C(=O)CCSC[C@H](NC(C)=O)C(=O)N[C@@H](CC(C)(C)C)C(=O)N1CCC[C@H]1C(=O)N[C@@H](CCC(=O)O)C(=O)N[C@H](CCCCNC(=O)CCc1cn(CCOCCOCCOCCOCCOCCC(=O)NCCCC[C@@H]3NC(=O)[C@H](CCC(N)=O)NC(=O)[C@@H]4CSCCC(=O)N5CN(CN(C5)C(=O)CCSC[C@@H](C(=O)N5CCC[C@H]5C(=O)N[C@@H](CO)C(=O)N[C@@H](Cc5c[nH]cn5)C(N)=O)NC(=O)[C@H](CC(C)C)NC(=O)[C@H](Cc5c[nH]cn5)NC(=O)[C@H](CC(C)C)NC3=O)C(=O)CCSC[C@H](NC(=O)[C@H](CCCCNC(=N)N)NC(=O)[C@H](CC(=O)O)NC(C)=O)C(=O)N[C@@H](CO)C(=O)N[C@@H](C)C(=O)NCC(=O)N[C@@H](Cc3c[nH]c5ccccc35)C(=O)N[C@@H](CC(C)C)C(=O)N[C@@H]([C@@H](C)O)C(=O)N[C@@H](CCSC)C(=O)N4)nn1)C(=O)N1CCC[C@H]1C(=O)N[C@@H](Cc1ccc(O)cc1)C(=O)N2` [BCY12229] (I: Ac-D[hArg]CSAGWLTMCQKLHLCPSH-NH2 / II: Ac-C[tBuAla]PE[dK]PYCFADPY[Nle]CA-NH2; linker I:3-I:11-I:17, II:1-II:8-II:15 via TATA; linker I:13-II:5 via X2), the fold induction at CD137 was 8.

Regarding `CCCC[C@@H]1NC(=O)[C@H](Cc2ccc(O)cc2)NC(=O)[C@@H]2CCCN2C(=O)[C@H](CC(=O)O)NC(=O)[C@H](C)NC(=O)[C@H](Cc2ccccc2)NC(=O)[C@@H]2CSCCC(=O)N3CN(CN(C3)C(=O)CCSC[C@@H](C(=O)N[C@@H](C)C(N)=O)NC1=O)C(=O)CCSC[C@H](NC(C)=O)C(=O)N[C@@H](CC(C)(C)C)C(=O)N1CCC[C@H]1C(=O)N[C@@H](CCC(=O)O)C(=O)N[C@H](CCCCNC(=O)CCOCCOCCOCCOCCOCCn1cc(CCC(=O)NCCCC[C@H](NC(=O)[C@@H]3CSCCC(=O)N4CN5CN(C4)C(=O)CCSC[C@H](NC(=O)[C@H](CC(=O)O)NC(=O)[C@H](CCCCNC(=N)N)NC(=O)[C@H](C)NC(C)=O)C(=O)N4C[C@H](O)C[C@H]4C(=O)N[C@@H](CC(C)C)C(=O)N[C@@H](C(C)C)C(=O)N[C@@H](CC(N)=O)C(=O)N4CCC[C@H]4C(=O)N[C@@H](CC(C)C)C(=O)N[C@@H](CSCCC5=O)C(=O)N[C@@H](CC(C)C)C(=O)N[C@@H](Cc4c[nH]cn4)C(=O)N4CCC[C@H]4C(=O)N[C@H](CC(=O)O)C(=O)N[C@@H](Cc4c[nH]c5ccccc45)C(=O)N[C@@H](CCCCNC(=N)N)C(=O)N3)C(N)=O)nn1)C(=O)N1CCC[C@H]1C(=O)N[C@@H](Cc1ccc(O)cc1)C(=O)N2` [BCY12234] (I: Ac-A[hArg]DC[Hyp]LVNPLCLHP[dD]W[hArg]CK-NH2 / II: Ac-C[tBuAla]PE[dK]PYCFADPY[Nle]CA-NH2; linker I:4-I:11-I:18, II:1-II:8-II:15 via TATA; linker I:19-II:5 via X1), in data set [1] (2.0 mg/kg), the clearance came out at 26 mL/min/kg, the half-life is 25.2 min and the Vd was 0.95 L/kg.

`CCCC[C@@H]1NC(=O)[C@H](Cc2ccc(O)cc2)NC(=O)[C@@H]2CCCN2C(=O)[C@H](CC(=O)O)NC(=O)[C@H](C)NC(=O)[C@H](Cc2ccccc2)NC(=O)[C@@H]2CSCCC(=O)N3CN(CN(C3)C(=O)CCSC[C@@H](C(=O)N[C@@H](C)C(N)=O)NC1=O)C(=O)CCSC[C@H](NC(C)=O)C(=O)N[C@@H](CC(C)(C)C)C(=O)N1CCC[C@H]1C(=O)N[C@@H](CCC(=O)O)C(=O)N[C@H](CCCCNC(=O)CCc1cn(CCOCCOCCOCCOCCOCCC(=O)N[C@H]3CSCCC(=O)N4CN5CN(C4)C(=O)CCSC[C@H](NC(=O)[C@H](CC(C)C)NC(=O)[C@@H]4CCCN4C(=O)[C@H](CC(N)=O)NC(=O)[C@H](C(C)C)NC(=O)[C@H](CC(C)C)NC(=O)[C@@H]4C[C@@H](O)CN4C3=O)C(=O)N[C@@H](CC(C)C)C(=O)N[C@@H](C(c3ccccc3)c3ccccc3)C(=O)N3CCC[C@H]3C(=O)N[C@H](CC(=O)O)C(=O)N[C@@H](Cc3c[nH]c4ccccc34)C(=O)N[C@@H]([C@@H](C)O)C(=O)N[C@H](C(N)=O)CSCCC5=O)nn1)C(=O)N1CCC[C@H]1C(=O)N[C@@H](Cc1ccc(O)cc1)C(=O)N2` [BCY13035] (I: Ac-C[tBuAla]PE[dK]PYCFADPY[Nle]CA-NH2 / II: C[Hyp]LVNPLCL[Dip]P[dD]WTC-NH2; linker I:1-I:8-I:15, II:1-II:8-II:15 via TATA; linker I:5-II:N via X1): in data set [1] (3.0 mg/kg), the clearance was determined as 11 mL/min/kg, the half-life is 90 min and the Vd came to 0.63 L/kg.

As for `CCCC[C@@H]1NC(=O)[C@H](Cc2ccc(O)cc2)NC(=O)[C@@H]2CCCN2C(=O)[C@H](CC(=O)O)NC(=O)[C@H](C)NC(=O)[C@H](Cc2ccccc2)NC(=O)[C@@H]2CSCCC(=O)N3CN(CN(C3)C(=O)CCSC[C@@H](C(=O)N[C@@H](C)C(N)=O)NC1=O)C(=O)CCSC[C@H](NC(C)=O)C(=O)N[C@@H](CC(C)(C)C)C(=O)N1CCC[C@H]1C(=O)N[C@@H](CCC(=O)O)C(=O)N[C@H](CCCCNC(=O)CCc1cn(CCOCCOCCOCCOCCOCCC(=O)N[C@H]3CSCCC(=O)N4CN5CN(C4)C(=O)CCSC[C@@H](C(=O)N[C@H](C)C(N)=O)NC(=O)[C@H]([C@@H](C)O)NC(=O)[C@H](Cc4c[nH]c6ccccc46)NC(=O)[C@@H](CC(=O)O)NC(=O)[C@@H]4CCCN4C(=O)[C@H](C(c4ccccc4)c4ccccc4)NC(=O)[C@H](CC(C)C)NC(=O)[C@H](CSCCC5=O)NC(=O)[C@H](CC(C)C)NC(=O)[C@@H]4CCCN4C(=O)[C@H](CC(N)=O)NC(=O)[C@H](C(C)C)NC(=O)[C@H](CC4CCC4)NC(=O)[C@@H]4C[C@@H](O)CN4C3=O)nn1)C(=O)N1CCC[C@H]1C(=O)N[C@@H](Cc1ccc(O)cc1)C(=O)N2` [BCY13040] (I: C[Hyp][Cba]VNPLCL[Dip]P[dD]WTC[dA]-NH2 / II: Ac-C[tBuAla]PE[dK]PYCFADPY[Nle]CA-NH2; linker I:1-I:8-I:15, II:1-II:8-II:15 via TATA; linker I:N-II:5 via X2), in data set [1] (3.0 mg/kg), the clearance turned out to be 10 mL/min/kg, the half-life was 96 min and the Vd was found to be 0.63 L/kg.
